Results as given in ChEMBL document CHEMBL1133832, “Synthesis of the first example of a C2-C3/C2'-C3'-endo unsaturated pyrrolo[2,1-c][1,4]benzodiazepine dimer” (Bioorg Med Chem Lett, 2001).

Tests used:
A2780 [1] = test: Dose of required to inhibit growth of cisplatin resistant human ovarian carcinoma (A2780 cisR) cell line with compound free controls as measured by the sulforhodamine B growth delay assay; assay type: functional, cell-based
A2780 [2] = test: Dose of required to inhibit growth of human ovarian carcinoma (A2780) cell line with compound free controls as measured by the sulforhodamine B growth delay assay; assay type: functional, cell-based
[3] = Resistance factor (IC50 resistant/ parent); assay type: functional

Compound | IC50 (A2780 [1]) | IC50 (A2780 [2]) | RF [3]
COC(=O)CC1=CN2C(=O)c3cc(OC)c(OCCCOc4cc5c(cc4OC)C(=O)N4C=C(CC(=O)OC)C[C@H]4C=N5)cc3N=C[C@@H]2C1 | 58 nM | 5.4 nM | 10.7
C=C1C[C@H]2C=Nc3cc(OCCCOc4cc5c(cc4OC)C(=O)N4CC(=C)C[C@H]4C=N5)c(OC)cc3C(=O)N2C1 [SJG-136] | 0.024 nM | 0.0225 nM | 1
COc1cc2c(cc1OCCCOc1cc3c(cc1OC)C(=O)N1CCC[C@H]1C=N3)N=C[C@@H]1CCCN1C2=O | – | – | 29.2
